According to patent US8404844B2, “Perylene semiconductors and methods of preparation and use thereof” (BASF SE, priority 2008, dated 2013):
Converted amounts (≈) assume the structure as drawn.

Assays:
[1] = Cyclic voltammetry (reduction potential); type: physicochemical; conditions: 0.1 M THF/TBAPF6, under N2, bare Ag reference electrode, scan 60-150 mV/s
Experimental: Cyclic voltammetry experiments were conducted using an Epsilon single-channel […] and a BAS C3 cell stand (a one-compartment cell with a C disk working electrode, a bare Ag reference electrode, and a Pt wire counter electrode). Appropriate precautions were taken to eliminate water and oxygen during measurement. All measurements were performed under N2 by dissolving the compound (1-3 mg) in a 0.1 M THF/TBAPF6 solutions with scanning rates between 60-150 mV/s. When the voltammograms are (quasi)reversible, it is possible to extract formal potentials (E^1/2) as the midpoints between peak potentials for the forward and reverse scans.
Table 1 summarizes certain physical and electrical properties of some compounds of the present teachings, including Ered values obtained from the cyclic voltammetry experiments. N,N′-Bis(4-n-octyl)-1,7-dicyanoperylene-3,4:9,10-bis(dicarboximide) (PDI8-CN2), N,N′-bis[(3S)-3,7-dimethyl-6-octenyl]-1,7-dicyanoperylene-3,4:9,10-bis(dicarboximide) (PDICitr-CN2), N,N′-bis(2-ethylhexyl)-1,7-dicyanoperylene-3,4:9,10-bis(dicarboximide) (PDI2EH-CN2), and N,N′-bis(2-methylhexyl)-1,7-dicyanoperylene-3,4:9,10-bis(dicarboximide) (PDI2MH-CN2) were included as comparative representative compounds.

[2] = Solubility in organic solvents; type: physicochemical; conditions: for Solubility CHCl3: chloroform; for Solubility DCB: dichlorobenzene (DCB); for Solubility compared to similar compounds: compared to PDI8-CN2, PDI2EH-CN2, PDICitr-CN2 and PDI2MH-CN2
Experimental: As certain embodiments of the compounds disclosed herein can be soluble in common solvents, the present teachings can offer processing advantages in fabricating electrical devices such as thin film semiconductors, field-effect devices, organic light emitting diodes (OLEDs), organic photovoltaics, photodetectors, capacitors, and sensors. As used herein, a compound can be considered soluble in a solvent when at least 1 mg of the compound can be dissolved in 1 mL of the solvent. Examples of common organic solvents include petroleum ethers; acetonitrile; aromatic hydrocarbons such as benzene, toluene, xylene, and mesitylene; ketones such as acetone and methyl ethyl ketone; ethers such as tetrahydrofuran, dioxane, bis(2-methoxyethyl)ether, diethyl ether, di-isopropyl ether, and t-butyl methyl ether; alcohols such as methanol, ethanol, butanol, and isopropyl alcohol; aliphatic hydrocarbons such as hexanes; acetates such as methyl acetate, ethyl acetate, methyl formate, ethyl formate, isopropyl acetate, and butyl acetate; amides such as dimethylformamide and dimethylacetamide; sulfoxides such as dimethylsulfoxide; halogenated aliphatic and aromatic hydrocarbons such as dichloromethane, chloroform, ethylene chloride, chlorobenzene, dichlorobenzene, and trichlorobenzene; and cyclic solvents such as cyclopentanone, cyclohexanone, and 2-methypyrrolidone. Examples of common inorganic solvents include water and ionic liquids.
Greater solubilities (2-10 times) can be achieved using warm solvents.

Row | Compound | Ered [1] [V] | Solubility CHCl3 [2] [µg/mL] | Solubility DCB [2] [µg/mL] | Solubility (DCB, 70° C.) [2] [µg/mL] | Solubility compared to similar compounds [2]
1 | CCCC(CC)N1C(=O)c2ccc3c4c(Br)cc5c6c(ccc(c7c(Br)cc(c2c37)C1=O)c64)C(=O)N(C(CC)CCC)C5=O (stereo not shown) [PDI1EB-Br2, N,N′-bis(1-ethylbutyl)-1,7-dibromoperylene-3,4:9,10-bis(dicarboximide)] | −0.34 | – | – | – | –
2 | CCCC(CC)N1C(=O)c2ccc3c4c(C#N)cc5c6c(ccc(c7c(C#N)cc(c2c37)C1=O)c64)C(=O)N(C(CC)CCC)C5=O (stereo not shown) [PDI1EB-CN2, N,N′-bis(1-ethylbutyl)-1,7-dicyanoperylene-3,4:9,10-bis(dicarboximide)] | −0.106 | 8000 (≈ 13.1 mM) | 10000 (≈ 16.4 mM) | – | –
3 | CCC(CC)N1C(=O)c2ccc3c4c(Br)cc5c6c(ccc(c7c(Br)cc(c2c37)C1=O)c64)C(=O)N(C(CC)CC)C5=O [PDI1EPr-Br2, N,N′-bis(1-ethylpropyl)-1,7-dibromoperylene-3,4:9,10-bis(dicarboximide)] | −0.38 | – | – | – | –
4 | CCC(CC)N1C(=O)c2ccc3c4c(C#N)cc5c6c(ccc(c7c(C#N)cc(c2c37)C1=O)c64)C(=O)N(C(CC)CC)C5=O [PDI1EPr-CN2, N,N′-bis(1-ethylpropyl)-1,7-dicyanoperylene-3,4:9,10-bis(dicarboximide)] | −0.101 | – | 10000 (≈ 17.2 mM) | – | –
5 | CC(C)CC(C)N1C(=O)c2ccc3c4c(Br)cc5c6c(ccc(c7c(Br)cc(c2c37)C1=O)c64)C(=O)N(C(C)CC(C)C)C5=O (stereo not shown) [PDI1M3MB-Br2, N,N′-bis(1,3-dimethylbutyl)-1,7-dibromoperylene-3,4:9,10-bis(dicarboximide)] | −0.39 | – | – | – | –
6 | CC(C)CC(C)N1C(=O)c2ccc3c4c(C#N)cc5c6c(ccc(c7c(C#N)cc(c2c37)C1=O)c64)C(=O)N(C(C)CC(C)C)C5=O (stereo not shown) [PDI1M3MB-CN2, N,N′-bis(1,3-dimethylbutyl)-1,7-dicyanoperylene-3,4:9,10-bis(dicarboximide)] | −0.088 | 30000 (≈ 49.3 mM) | 37000 (≈ 60.8 mM) | 37100 (≈ 60.9 mM) | unexpected increase in solubility
7 | CCCC(C)N1C(=O)c2ccc3c4c(Br)cc5c6c(ccc(c7c(Br)cc(c2c37)C1=O)c64)C(=O)N(C(C)CCC)C5=O (stereo not shown) [PDI1MB-Br2, N,N′-bis(1-methylbutyl)-1,7-dibromoperylene-3,4:9,10-bis(dicarboximide)] | −0.39 | – | – | – | –

Now from value to molecule:

Row | Ered [1] [V] | Solubility CHCl3 [2] [µg/mL] | Solubility DCB [2] [µg/mL] | Solubility (DCB, 70° C.) [2] [µg/mL] | Solubility compared to similar compounds [2] | Compound
8 | −0.083 | – | 5000 (≈ 8.61 mM) | – | – | CCCC(C)N1C(=O)c2ccc3c4c(C#N)cc5c6c(ccc(c7c(C#N)cc(c2c37)C1=O)c64)C(=O)N(C(C)CCC)C5=O (stereo not shown) [PDI1MB-CN2, N,N′-bis(1-methylbutyl)-1,7-dicyanoperylene-3,4:9,10-bis(dicarboximide)]
9 | −0.38 | – | – | – | – | CCCCCC(C)N1C(=O)c2ccc3c4c(Br)cc5c6c(ccc(c7c(Br)cc(c2c37)C1=O)c64)C(=O)N(C(C)CCCCC)C5=O (stereo not shown) [PDI1MH-Br2, N,N′-bis(1-methylhexyl)-1,7-dibromoperylene-3,4:9,10-bis(dicarboximide)]
10 | −0.094 | 54000 (≈ 84.8 mM) | 52000 (≈ 81.7 mM) | – | unexpected increase in solubility | CCCCCC(C)N1C(=O)c2ccc3c4c(C#N)cc5c6c(ccc(c7c(C#N)cc(c2c37)C1=O)c64)C(=O)N(C(C)CCCCC)C5=O (stereo not shown) [PDI1MH-CN2, N,N′-bis(1-methylhexyl)-1,7-dicyanoperylene-3,4:9,10-bis(dicarboximide)]
11 | −0.41 | – | – | – | – | CCCCC(C)N1C(=O)c2ccc3c4c(Br)cc5c6c(ccc(c7c(Br)cc(c2c37)C1=O)c64)C(=O)N(C(C)CCCC)C5=O (stereo not shown) [PDI1MP-Br2, N,N′-bis(1-methylpentyl)-1,7-dibromoperylene-3,4:9,10-bis(dicarboximide)]
12 | −0.071 | 43000 (≈ 70.6 mM) | 40000 (≈ 65.7 mM) | 41800 (≈ 68.7 mM) | unexpected increase in solubility | CCCCC(C)N1C(=O)c2ccc3c4c(C#N)cc5c6c(ccc(c7c(C#N)cc(c2c37)C1=O)c64)C(=O)N(C(C)CCCC)C5=O (stereo not shown) [PDI1MP-CN2, N,N′-bis(1-methylpentyl)-1,7-dicyanoperylene-3,4:9,10-bis(dicarboximide)]
13 | −0.40 | – | – | – | – | CCC(C)N1C(=O)c2ccc3c4c(Br)cc5c6c(ccc(c7c(Br)cc(c2c37)C1=O)c64)C(=O)N(C(C)CC)C5=O (stereo not shown) [PDI1MPr-Br2, N,N′-bis(1-methylpropyl)-1,7-dibromoperylene-3,4:9,10-bis(dicarboximide)]
14 | −0.091 | – | 8000 (≈ 14.5 mM) | – | – | CCC(C)N1C(=O)c2ccc3c4c(C#N)cc5c6c(ccc(c7c(C#N)cc(c2c37)C1=O)c64)C(=O)N(C(C)CC)C5=O (stereo not shown) [PDI1MPr-CN2, N,N′-bis(1-methylpropyl)-1,7-dicyanoperylene-3,4:9,10-bis(dicarboximide)]
15 | −0.130 | 5000 (≈ 7.52 mM) | 5000 (≈ 7.52 mM) | – | – | CCCCC(CC)CN1C(=O)c2ccc3c4c(C#N)cc5c6c(ccc(c7c(C#N)cc(c2c37)C1=O)c64)C(=O)N(CC(CC)CCCC)C5=O (stereo not shown) [PDI2EH-CN2, N,N′-bis(2-ethylhexyl)-1,7-dicyanoperylene-3,4:9,10-bis(dicarboximide), reference compound]
16 | −0.120 | – | 5000 (≈ 7.85 mM) | – | – | CCCCC(C)CN1C(=O)c2ccc3c4c(C#N)cc5c6c(ccc(c7c(C#N)cc(c2c37)C1=O)c64)C(=O)N(CC(C)CCCC)C5=O (stereo not shown) [PDI2MH-CN2, N,N′-bis(2-methylhexyl)-1,7-dicyanoperylene-3,4:9,10-bis(dicarboximide), reference compound]
17 | −0.150 | 4000 (≈ 6.02 mM) | 4000 (≈ 6.02 mM) | – | – | CCCCCCCCN1C(=O)c2ccc3c4c(C#N)cc5c6c(ccc(c7c(C#N)cc(c2c37)C1=O)c64)C(=O)N(CCCCCCCC)C5=O [PDI8-CN2, N,N′-Bis(4-n-octyl)-1,7-dicyanoperylene-3,4:9,10-bis(dicarboximide), reference compound]
18 | −0.142 | – | 8000 (≈ 11.2 mM) | – | – | CC(C)=CCC[C@H](C)CCN1C(=O)c2ccc3c4c(C#N)cc5c6c(ccc(c7c(C#N)cc(c2c37)C1=O)c64)C(=O)N(CC[C@@H](C)CCC=C(C)C)C5=O [PDICitr-CN2, N,N′-bis[(3S)-3,7-dimethyl-6-octenyl]-1,7-dicyanoperylene-3,4:9,10-bis(dicarboximide), reference compound]
